In ChEMBL document CHEMBL2202996, “Synthesis, evaluation, and radiolabeling of new potent positive allosteric modulators of the metabotropic glutamate receptor 2 as potential tracers for positron emission tomography imaging” (J Med Chem, 2012):

How the values were obtained:
[1] = target: T1, Metabotropic glutamate receptor 2 (Homo sapiens, UniProt Q14416); test: Agonist activity at human mGLuR2 expressed in CHO cell membrane assessed as […] after 30 mins by scintillation counting relative to control; type: functional, cell membranes
Target sequence in this assay (Q14416 19-872 limits assumed): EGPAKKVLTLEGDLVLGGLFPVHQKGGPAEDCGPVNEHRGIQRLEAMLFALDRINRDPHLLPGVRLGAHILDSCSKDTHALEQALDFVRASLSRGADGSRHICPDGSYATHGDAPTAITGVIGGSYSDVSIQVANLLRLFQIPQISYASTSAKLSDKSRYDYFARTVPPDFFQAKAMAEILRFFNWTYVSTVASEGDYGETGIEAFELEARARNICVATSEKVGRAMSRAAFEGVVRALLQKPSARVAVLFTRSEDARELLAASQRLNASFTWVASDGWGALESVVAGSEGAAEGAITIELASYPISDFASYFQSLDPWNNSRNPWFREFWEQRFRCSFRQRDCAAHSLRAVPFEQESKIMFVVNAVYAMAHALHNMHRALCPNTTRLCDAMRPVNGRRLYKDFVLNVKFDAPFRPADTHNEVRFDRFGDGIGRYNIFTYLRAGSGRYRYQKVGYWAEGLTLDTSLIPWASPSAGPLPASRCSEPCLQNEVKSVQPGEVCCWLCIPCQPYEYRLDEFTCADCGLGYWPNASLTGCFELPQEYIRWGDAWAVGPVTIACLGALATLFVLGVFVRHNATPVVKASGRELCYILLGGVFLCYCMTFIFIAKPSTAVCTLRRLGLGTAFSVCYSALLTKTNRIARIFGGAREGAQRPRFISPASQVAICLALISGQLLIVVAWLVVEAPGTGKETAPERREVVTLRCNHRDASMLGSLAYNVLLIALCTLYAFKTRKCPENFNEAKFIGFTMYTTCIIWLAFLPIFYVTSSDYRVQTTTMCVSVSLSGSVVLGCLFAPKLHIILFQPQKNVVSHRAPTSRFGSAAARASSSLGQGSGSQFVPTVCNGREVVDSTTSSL

[2] = target: T2, Sodium-dependent dopamine transporter (Homo sapiens, UniProt Q01959); test: Binding affinity to DAT
HEK293 [3] = test: Selectivity ratio for human mGluR7 expressed in HEK293 cells to human mGluR2 expressed in CHO cell membranes; type: cell-based
[4] = target: T2, Sodium-dependent dopamine transporter; test: Binding affinity to DAT at 10 uM by CEREP assay
HEK293 [5] = test: Selectivity ratio for human mGluR8 expressed in HEK293 cells to human mGluR2 expressed in CHO cell membranes; type: cell-based
[6] = target: T1, Metabotropic glutamate receptor 2; test: Displacement of [3H]JNJ-40068782 from human mGLuR2 expressed in CHO cell membrane after 60 mins by liquid scintillation counting; type: cell membranes
Target sequence in this assay (Q14416 whole entry): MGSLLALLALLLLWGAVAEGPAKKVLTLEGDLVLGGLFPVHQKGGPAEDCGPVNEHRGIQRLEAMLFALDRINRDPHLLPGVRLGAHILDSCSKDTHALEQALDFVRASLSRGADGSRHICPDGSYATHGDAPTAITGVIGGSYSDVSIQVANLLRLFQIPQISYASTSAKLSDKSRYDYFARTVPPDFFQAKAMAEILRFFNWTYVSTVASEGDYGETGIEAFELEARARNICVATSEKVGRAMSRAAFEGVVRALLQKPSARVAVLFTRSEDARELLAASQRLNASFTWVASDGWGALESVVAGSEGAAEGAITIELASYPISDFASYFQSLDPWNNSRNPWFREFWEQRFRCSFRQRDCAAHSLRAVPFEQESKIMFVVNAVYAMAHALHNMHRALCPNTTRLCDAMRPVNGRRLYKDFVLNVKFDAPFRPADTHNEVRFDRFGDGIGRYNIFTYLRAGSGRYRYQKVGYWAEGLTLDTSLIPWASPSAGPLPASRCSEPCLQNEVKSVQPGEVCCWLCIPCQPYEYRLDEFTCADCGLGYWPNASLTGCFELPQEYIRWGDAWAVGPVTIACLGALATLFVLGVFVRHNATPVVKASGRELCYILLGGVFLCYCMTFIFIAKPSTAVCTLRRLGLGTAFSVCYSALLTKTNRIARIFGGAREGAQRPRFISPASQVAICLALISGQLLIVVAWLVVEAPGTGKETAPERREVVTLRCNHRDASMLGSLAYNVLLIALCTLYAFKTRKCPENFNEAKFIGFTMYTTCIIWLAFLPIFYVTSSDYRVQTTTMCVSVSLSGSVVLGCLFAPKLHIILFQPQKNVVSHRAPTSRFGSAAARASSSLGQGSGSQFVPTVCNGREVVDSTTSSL

[7] = target: T1, Metabotropic glutamate receptor 2; test: Agonist activity at human mGLuR2 expressed in CHO cell membrane assessed as […] after 30 mins by scintillation counting; type: functional, cell membranes
Target sequence in this assay (Q14416 whole entry): as above

D(1A) dopamine receptor [8] = target: T3, D(1A) dopamine receptor (Homo sapiens, UniProt P21728); test: Binding affinity to dopamine D1 receptor at 10 uM by CEREP assay
HEK293 [9] = test: Selectivity ratio for human mGluR5 expressed in HEK293 cells to human mGluR2 expressed in CHO cell membranes; type: cell-based
HEK293 [10] = test: Selectivity ratio for human mGluR3 expressed in HEK293 cells to human mGluR2 expressed in CHO cell membranes; type: cell-based
CHO [11] = test: Selectivity ratio for human mGluR4 to human mGluR2 expressed in CHO cell membranes; type: cell-based
Liver microsomes [12] = test: Drug metabolism in rat liver microsomes assessed as O-methylated compound derivative; type: ADME, Microsome
[13] = Fraction unbound in rat plasma; type: ADME, cell-free
Liver microsomes [14] = test: Drug metabolism in rat liver microsomes assessed as M+O oxidative metabolite; type: ADME, Microsome
CHO [15] = test: Selectivity ratio for rat mGluR6 to human mGluR2 expressed in CHO cell membranes; type: cell-based
D(1A) dopamine receptor [16] = target: T3, D(1A) dopamine receptor; test: Binding affinity to dopamine D1 receptor
Liver microsomes [17] = test: Drug metabolism in human liver microsomes assessed as O-methylated compound derivative; type: ADME, Microsome
HEK293 [18] = test: Selectivity ratio for human mGluR1 expressed in HEK293 cells to human mGluR2 expressed in CHO cell membranes; type: cell-based
[19] = Fraction unbound in human plasma; type: ADME, cell-free
Liver microsomes [20] = test: Drug metabolism in human liver microsomes assessed as M+O oxidative metabolite; type: ADME, Microsome
Hippocampus = test: Ratio of SUV in hippocampus in iv dosed Wistar at 2 mins post administration by gamma counting to SUV in hippocampus in iv dosed Wistar at 30 mins post administration by gamma counting; type: ADME, organism-based; conditions: rat, in vivo
Cerebrum [21] = test: Biodistribution in Wistar rat cerebrum at 22 Mbq, iv measured at 2 mins post administration by gamma counting; type: ADME, organism-based; conditions: in vivo
Cerebellum [22] = test: Ratio of SUV in cerebellum in iv dosed Wistar at 2 mins post administration by gamma counting to SUV in cerebellum in iv dosed Wistar at 30 mins post administration by gamma counting; type: ADME, organism-based; conditions: rat, in vivo
Brain [23] = test: Ratio of SUV in total brain in iv dosed Wistar at 2 mins post administration by gamma counting to SUV in total brain in iv dosed Wistar at 30 mins post administration by gamma counting; type: ADME, organism-based; conditions: rat, in vivo
Liver = test: Biodistribution in Wistar rat liver at 22 Mbq, iv measured at 60 mins post administration by gamma counting; type: ADME, organism-based; conditions: in vivo, 1 h
Cortex = test: Ratio of SUV in cortex in iv dosed Wistar at 2 mins post administration by gamma counting to SUV in cortex in iv dosed Wistar at 30 mins post administration by gamma counting; type: ADME, organism-based; conditions: rat, in vivo
Rattus norvegicus = test: Biodistribution in Wistar rat urinary system at 22 Mbq, iv measured at 60 mins post administration by gamma counting; type: ADME, organism-based, Urine; conditions: in vivo, 1 h
Cerebellum [24] = test: Biodistribution in Wistar rat cerebellum at 22 Mbq, iv measured at 2 mins post administration by gamma counting; type: ADME, organism-based; conditions: in vivo
Intestine = test: Biodistribution in Wistar rat intestine at 22 Mbq, iv measured at 60 mins post administration by gamma counting; type: ADME, organism-based; conditions: in vivo, 1 h
Cerebrum [25] = test: Ratio of SUV in cerebrum in iv dosed Wistar at 2 mins post administration by gamma counting to SUV in cerebrum in iv dosed Wistar at 30 mins post administration by gamma counting; type: ADME, organism-based; conditions: rat, in vivo
Brain [26] = test: Biodistribution in Wistar rat brain at 22 Mbq, iv measured at 2 mins post administration by gamma counting; type: ADME, organism-based; conditions: in vivo
Striatum = test: Ratio of SUV in striatum in iv dosed Wistar at 2 mins post administration by gamma counting to SUV in striatum in iv dosed Wistar at 30 mins post administration by gamma counting; type: ADME, organism-based; conditions: rat, in vivo

T2 sequence (Q01959 whole entry): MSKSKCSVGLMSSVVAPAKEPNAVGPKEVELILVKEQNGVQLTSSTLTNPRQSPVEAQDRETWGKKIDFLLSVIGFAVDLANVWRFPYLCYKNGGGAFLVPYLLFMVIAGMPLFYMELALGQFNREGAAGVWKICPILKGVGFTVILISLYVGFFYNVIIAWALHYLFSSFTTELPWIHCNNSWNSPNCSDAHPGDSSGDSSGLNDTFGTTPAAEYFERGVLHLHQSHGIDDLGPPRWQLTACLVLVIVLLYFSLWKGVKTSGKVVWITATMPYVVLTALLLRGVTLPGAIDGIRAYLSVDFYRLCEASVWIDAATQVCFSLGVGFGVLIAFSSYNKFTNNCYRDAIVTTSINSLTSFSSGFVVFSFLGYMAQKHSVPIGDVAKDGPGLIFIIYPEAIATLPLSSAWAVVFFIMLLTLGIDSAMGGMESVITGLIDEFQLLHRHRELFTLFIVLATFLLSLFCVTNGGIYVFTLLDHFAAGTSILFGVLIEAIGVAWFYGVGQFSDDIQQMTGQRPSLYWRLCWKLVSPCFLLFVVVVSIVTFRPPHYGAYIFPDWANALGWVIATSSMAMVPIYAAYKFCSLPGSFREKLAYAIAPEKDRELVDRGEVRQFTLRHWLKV
T3 sequence (P21728 whole entry): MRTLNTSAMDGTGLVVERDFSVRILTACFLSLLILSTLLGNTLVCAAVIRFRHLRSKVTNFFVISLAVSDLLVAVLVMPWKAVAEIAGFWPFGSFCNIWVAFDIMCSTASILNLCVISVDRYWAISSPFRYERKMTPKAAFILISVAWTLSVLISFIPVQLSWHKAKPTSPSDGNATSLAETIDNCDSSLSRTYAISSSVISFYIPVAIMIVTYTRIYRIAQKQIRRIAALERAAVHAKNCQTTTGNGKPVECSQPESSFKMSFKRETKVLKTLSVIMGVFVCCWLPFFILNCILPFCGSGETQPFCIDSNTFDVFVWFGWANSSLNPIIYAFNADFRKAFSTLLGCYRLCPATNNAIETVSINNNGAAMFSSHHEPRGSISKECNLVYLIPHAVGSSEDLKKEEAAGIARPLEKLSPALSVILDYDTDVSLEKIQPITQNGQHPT

Structure (SMILES)	Emax [1] [%]	Selectivity ratio (HEK293 [3])	Selectivity ratio (HEK293 [5])	IC50 [6] [nM]	EC50 ([7]; read-out: EC50) [nM]	Selectivity ratio (HEK293 [9])	Selectivity ratio (HEK293 [10])	Selectivity ratio (CHO [11])	Drug metabolism (Liver microsomes [12])	fraction unbound [13]	Drug metabolism (Liver microsomes [14])	Selectivity ratio (CHO [15])	Drug metabolism (Liver microsomes [17])	Selectivity ratio (HEK293 [18])	fraction unbound [19]	Drug metabolism (Liver microsomes [20])	also measured
COc1c(F)ccc(F)c1C1CCN(c2ccn3c(CC4CC4)nnc3c2Cl)CC1	282	> 350	> 350	9.23	7.5	> 350	> 350	> 350	Active	< 0.01	Active	> 350	Active	> 350	< 0.01	Active	Ki [2]: > 8500 nM; Activity [4]: 52%; Activity (D(1A) dopamine receptor [8]): 76%; Ki (D(1A) dopamine receptor [16]): ≥ 6200 nM
COc1ccc(F)c(F)c1C1CCN(c2ccn3c(CC4CC4)nnc3c2Cl)CC1	258	> 350	> 350	7.3	–	> 350	70	> 350	Active	< 0.01	Active	> 350	Active	> 350	< 0.01	Active	–
N#Cc1c(N2CCC(c3ccccc3)CC2)ccn2c(CC(F)(F)F)nnc12	–	–	–	–	–	–	–	–	–	–	–	–	–	–	–	–	EC50 ([7]; read-out: pEC50 (converted)): 56.2 nM
COc1cccc(F)c1C1CCN(c2ccn3c(CC4CC4)nnc3c2Cl)CC1	304	> 350	> 350	11.2	–	> 350	> 350	> 350	Active	< 0.01	Active	> 350	Active	> 350	< 0.01	Active	–
COc1c(F)cccc1C1CCN(c2ccn3c(CC4CC4)nnc3c2Cl)CC1	336	–	–	–	–	–	–	–	Active	< 0.01	Active	–	Active	–	< 0.01	Active	–
COc1c(F)ccc(F)c1C1CCN(c2ccn3c(CC4CC4)nnc3c2C(F)(F)F)CC1	421	> 350	> 350	–	–	> 350	> 350	> 350	Active	< 0.01	Active	> 350	Active	> 350	< 0.01	Active	–
COc1c(F)cccc1C1CCN(c2ccn3c(CC(F)(F)F)nnc3c2C#N)CC1	306	–	–	–	31	–	–	–	Active	0.04	Active	–	Active	–	0.047	Active	–
COc1c(C2CCN(c3ccn4c(CC5CC5)nnc4c3Cl)CC2)ccc(F)c1F	342	–	–	–	26	–	–	–	Active	< 0.01	Active	–	Active	–	< 0.01	Active	–
[11CH3]Oc1cccc(F)c1C1CCN(c2ccn3c(CC4CC4)nnc3c2Cl)CC1	–	–	–	–	–	–	–	–	–	–	–	–	–	–	–	–	Ratio (Hippocampus): 0.63; Drug uptake (Cerebrum [21]): 0.45 %ID; Ratio (Cerebellum [22]): 0.71; Ratio (Brain [23]): 0.72; Drug uptake (Liver): Active; Ratio (Cortex): 0.71; Drug uptake (Rattus norvegicus): Active; Drug uptake (Cerebellum [24]): 0.17 %ID; Drug uptake (Intestine): Active; Ratio (Cerebrum [25]): 0.6; Drug uptake (Brain [26]): 0.65 %ID; Ratio (Striatum): 0.59
